{"source": "patent US12527819B2", "about": "“Method of preventing or treating viral infections” (Vector Vitale IP LLC, priority 2020, dated 2026)", "key": {"MDCK cells": {"tested_on": "MDCK cells", "design": "unit not given beside the values"}, "in vitro": {"assay": "in vitro", "details": "dog"}, "herpes simplex virus": {"tested_on": "herpes simplex virus", "assay": "Light water at various doses in mice infected intracerebrally with herpes virus", "format": "in vivo", "details": "14 day; for Number of survived mice: 8 mice", "procedure": "Thus 50, 100 and 200 μl per mouse were administered to the infected animals.\nGroups consisting of 8 mice each were included in the experiment. […] The first administration of drugs was 24 hours later. After infection, there were 4 injections in total given every other day. Uninfected mice who received intracerebral injections of 30 μl of normal saline solution and the mice infected with HSV served as a control."}, "herpes virus": {"tested_on": "herpes virus", "assay": "Herpes virus meningoencephalitis model in mice, treatment regimen", "details": "dose 100 μg", "protocol": "The anti-herpes activity of zinc preparations was studied in the model of herpes virus meningoencephalitis in BALB/c mice (18-20 g in weight) with their intracerebral administration at a dose of 0.03 ml. In all the experimental groups, the drug was administered intraperitoneally at a dose of 0.1 ml. […] 4B—Zn-64 citrate in deuterium-depleted water—3 mg/ml • 2. 4B-2—Zn citrate in deuterium-depleted water—3 mg/ml • 3. 8B—Zn-64 glutamate in deuterium-depleted water—3 mg/ml • 4. 8B-2—Zn glutamate in deuterium-depleted water—3 mg/ml • 5. 9B—Zn-64 glycine-methionine in deuterium-depleted water—1 mg/ml • 6. 9B-2—Zn glycine-methionine in deuterium-depleted water—1 mg/ml\nThe drug activity was evaluated by comparing the lethality in the experimental and control groups. The following factors were taken into account: • percentage of animals that died • multiplicity of protection (MP)—multiplicity of decrease in the number of dead mice in the experimental group compared to the control group • efficacy index (EI) of the drugs was determined using the following formula:"}, "MDBK cells": {"tested_on": "MDBK cells", "assay": "Mitotic regime of MDBK cells (cytological analysis)", "format": "cell-based, bovine", "details": "dilution 1:1000; for Abnormal mitoses MDBK / Mitotic activity MDBK: relative to tissue control", "procedure": "Cytological analysis was performed after fixing the cells grown on cover-glasses in Shabadash's fluid (9 parts of copper nitrate in ethyl alcohol+1 part of formalin) for 30 minutes. The samples for the cytological analysis were stained using hematoxylin and eosin stain according to the generally accepted procedure.\nThe mitotic index was calculated by analyzing 3000-10000 observed cells and was expressed in ppm (‰), which was the number of mitoses per 1000 cells. At the same time, the presence of pathological forms of mitosis was determined. A classification developed by V. N. Blyumkin was used for the analysis of pathological mitoses.\nThe examination of cytological preparations was carried out with lenses ×40 and ×100, eyepiece ×10 in a Standard 20, Zeiss microscope.\nThe experiment was conducted on the culture of MDBK cells that were treated with various options of the drugs. After 24 hours of contact the cells were fixed and cytological preparations were made using a standard technique.\nThe culture of MDBK cells was selected for the study. The cells were treated with various drug options at concentrations nontoxic for cells. After 24 hours of contact, the cells were fixed and cytological preparations were prepared according to a conventional technique."}, "[1]": {"tested_on": "influenza virus A/FM/1/47 (H1N1)", "format": "in vivo, BALB/c mice", "details": "reference drug, 1000 μg/kg"}}, "note": "Where two headings read alike, the source gives them in different places."}
{"molecule": "O=C(O)CC(O)(CC(=O)O)C(=O)O", "note": "[No 8a, citric acid]", "values": [{"measurement": "CC50 as dilution", "setting": "MDCK cells", "result": "1/160"}, {"measurement": "CC50 at 5 days", "setting": "in vitro", "result": 14, "unit": "µg/mL"}]}
{"molecule": "Deuterium-depleted water", "values": [{"measurement": "MP (%)", "setting": "herpes simplex virus; 50 μl/mouse", "result": 38, "unit": "%"}, {"measurement": "Number of survived mice", "setting": "herpes simplex virus; 50 μl/mouse, 4 injections", "result": 3}, {"measurement": "MP (%)", "setting": "herpes simplex virus; 100 μl/mouse", "result": 50, "unit": "%"}, {"measurement": "Number of survived mice", "setting": "herpes simplex virus; 100 μl/mouse, 4 injections", "result": 4}, {"measurement": "MP (%)", "setting": "herpes simplex virus; 200 μl/mouse", "result": 75, "unit": "%"}, {"measurement": "Number of survived mice", "setting": "herpes simplex virus; 200 μl/mouse, 4 injections", "result": 6}, {"measurement": "EI (efficacy index)", "setting": "herpes virus", "result": 50.0}, {"measurement": "Inhibition of infectious titer in cerebral tissue in lg TCD50", "setting": "herpes virus", "result": 2.0, "unit": "lg TCD50"}, {"measurement": "MP (multiplicity of protection)", "setting": "herpes virus", "result": 2.0}, {"measurement": "Number of mice that died, %", "setting": "herpes virus; 10 mice", "result": 50.0, "unit": "%"}, {"measurement": "Number of mice that died, total", "setting": "herpes virus; 10 mice", "result": 5}]}
{"molecule": "Nc1nc2c(ncn2COCCO)c(=O)[nH]1", "note": "[Aciclovir, Acyclovir, reference compound]", "values": [{"measurement": "MP (%)", "setting": "herpes simplex virus; reference, dose not given", "result": 25, "unit": "%"}, {"measurement": "Number of survived mice", "setting": "herpes simplex virus; reference, dose not given", "result": 2}]}
{"molecule": "N[C@@H](CCC(=O)O)C(=O)O", "note": "[10a, glutamic acid]", "values": [{"measurement": "Abnormal mitoses in %", "setting": "MDBK cells; MDBK, 24 h", "result": 22.2, "unit": "%"}, {"measurement": "Abnormal mitoses MDBK", "setting": "MDBK cells", "result": 1.0}, {"measurement": "Mitotic activity MDBK", "setting": "MDBK cells", "result": 0.77}, {"measurement": "CC50 as dilution", "setting": "MDCK cells", "result": "1:160"}]}
{"molecule": "Cc1ccc(S(=O)(=O)Nc2ccccc2NC(=O)c2ccccc2)cc1", "note": "[10-3, n-n-toluenesulfonyl-n-benzoyl-o-phenylenediamine]", "values": [{"measurement": "Abnormal mitoses in %", "setting": "MDBK cells; MDBK, 24 h", "result": 25.0, "unit": "%"}, {"measurement": "Mitotic activity in %", "setting": "MDBK cells; MDBK, 24 h", "result": 16.0, "unit": "%"}, {"measurement": "Abnormal mitoses MDBK", "setting": "MDBK cells", "result": 1.12}, {"measurement": "Mitotic activity MDBK", "setting": "MDBK cells", "result": 0.88}, {"measurement": "viability of Raji cells (MTT reading)", "setting": "Raji cells; 0.9 μg/ml", "result": 1.287}, {"measurement": "viability of Raji cells (MTT reading)", "setting": "Raji cells; 9 μg/ml", "result": 1.235}, {"measurement": "viability of Raji cells (MTT reading)", "setting": "Raji cells; 18 μg/ml", "result": 0.1791}, {"measurement": "viability of Raji cells (MTT reading)", "setting": "Raji cells; 90 μg/ml", "result": 0.152}, {"measurement": "CC50", "setting": "Raji cells; Raji cells, MTT", "result": 33.46, "unit": "µg/mL"}]}
{"molecule": "N[C@@H](CC(=O)O)C(=O)O", "note": "[9a, aspartic acid]", "values": [{"measurement": "CC50 as dilution", "setting": "MDCK cells", "result": "1/80"}, {"measurement": "CC50 at 5 days", "setting": "in vitro", "result": 42, "unit": "µg/mL"}]}
{"molecule": "CCOC(=O)C1=C[C@@H](OC(CC)CC)[C@H](NC(C)=O)[C@@H](N)C1", "note": "[Tamiflu]", "values": [{"measurement": "EI (efficacy index)", "setting": "[1]", "result": 70}, {"measurement": "Inhibition of infectious titer in cerebral tissue in lg TCD50", "setting": "[1]", "result": 2.5, "unit": "lg TCD50"}, {"measurement": "Number of mice that died, %", "setting": "[1]; 10 mice", "result": 30.0, "unit": "%"}, {"measurement": "Number of mice that died, total", "setting": "[1]; 10 mice", "result": 3}]}
